Experimental findings from ChEMBL document CHEMBL4680342, “Discovery of DB18, a potent inhibitor of CLK kinases with a high selectivity against DYRK1A kinase” (Bioorg Med Chem, 2021) are described below.

The test system of one data set is Fibroblast. The data set is described as follows: cells. Conditions: Homo sapiens, 48 h.
In the next data set the test system is Huh-7. In words: cells. Conditions: Homo sapiens, Huh-7, 48 h.
Data set [1] concerns the target Glycogen synthase kinase-3 beta (Homo sapiens) (UniProt P49841). The data set is described as follows: Inhibition of human GSK3beta assessed as residual activity at 10 uM by ADP-Glo assay relative to control. On the technique in general: In ADP-Glo the light output rises with the ADP produced.
Data set [2] concerns the target Cyclin-dependent kinase 5/CDK5 activator 1 (Homo sapiens) (UniProt Q00535+Q15078). The data set is described as follows: Inhibition of human CDK5/p25 assessed as residual activity at 10 uM by ADP-Glo assay relative to control. It is filed as protein-complex assay.
Data set [3] deals with Casein kinase I isoform epsilon (Homo sapiens) (UniProt P49674). The data set is described as follows: Inhibition of human CK1epsilon assessed as residual activity at 10 uM by ADP-Glo assay relative to control.
Another data set concerns MDA-MB-231. In words: cells. The following applies: Homo sapiens, MDA-MB-231, 48 h.
The target in data set [4] is DYRK1A (dual specificity tyrosine-phosphorylation-regulated kinase 1A) (Rattus norvegicus, UniProt Q63470). The data set is described as follows: Inhibition of rat DYRK1A (1 to 499 residues) assessed as residual activity at 10 uM by ADP-Glo assay relative to control. The following applies: rat DYRK1A enzyme (residues 1 to 499), read-out: Activity.
Data set [5] addresses T1, Serine/threonine-protein kinase haspin (Homo sapiens) (UniProt Q8TF76).
T1 sequence (whole entry): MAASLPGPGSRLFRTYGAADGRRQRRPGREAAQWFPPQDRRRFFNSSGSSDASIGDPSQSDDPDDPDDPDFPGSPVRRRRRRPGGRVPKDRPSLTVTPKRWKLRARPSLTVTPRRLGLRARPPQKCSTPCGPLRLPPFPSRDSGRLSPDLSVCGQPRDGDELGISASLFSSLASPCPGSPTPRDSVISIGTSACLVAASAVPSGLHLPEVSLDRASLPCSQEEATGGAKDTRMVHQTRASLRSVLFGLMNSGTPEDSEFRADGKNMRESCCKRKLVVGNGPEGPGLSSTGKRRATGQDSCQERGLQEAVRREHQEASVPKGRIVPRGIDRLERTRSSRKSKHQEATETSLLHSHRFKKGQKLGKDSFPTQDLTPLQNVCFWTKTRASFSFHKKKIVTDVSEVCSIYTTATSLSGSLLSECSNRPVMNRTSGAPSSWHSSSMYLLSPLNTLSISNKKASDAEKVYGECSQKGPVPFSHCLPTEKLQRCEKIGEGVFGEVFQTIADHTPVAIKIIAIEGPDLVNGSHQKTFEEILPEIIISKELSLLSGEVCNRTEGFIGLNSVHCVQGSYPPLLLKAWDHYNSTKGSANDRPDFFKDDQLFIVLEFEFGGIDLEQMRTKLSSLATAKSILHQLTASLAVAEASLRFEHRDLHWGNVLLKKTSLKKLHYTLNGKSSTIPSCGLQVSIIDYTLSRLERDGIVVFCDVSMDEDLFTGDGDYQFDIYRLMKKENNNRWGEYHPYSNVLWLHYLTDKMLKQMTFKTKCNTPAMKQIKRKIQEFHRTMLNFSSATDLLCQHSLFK
The data set is described as follows: Inhibition of human HASPIN assessed as residual activity at 10 uM by ADP-Glo assay relative to control.

The test system of the next data set is Caco-2. The data set is described as follows: cells. Conditions: Homo sapiens, Caco-2, 48 h.
The subject of another data set is NCI-H727. In words: cells. The following applies: Homo sapiens, NCI-H727, 48 h.
Data set [6] concerns the target Dual specificity protein kinase CLK1 (Mus musculus) (UniProt P22518). In words: Inhibition of mouse CLK1 assessed as residual activity at 10 uM by ADP-Glo assay relative to control.
In data set [7] the target is CDK9/cyclin T1 (Homo sapiens) (UniProt O60563+P50750). The data set is described as follows: Inhibition of human CDK9/CyclinT assessed as residual activity at 10 uM by ADP-Glo assay relative to control. The data set is classed as protein-complex assay.
Data set [8] addresses Serine/threonine-protein kinase pim-1 (Homo sapiens) (UniProt P11309). The data set is described as follows: Inhibition of human PIM1 assessed as residual activity at 10 uM by ADP-Glo assay relative to control.
A further data set deals with PC-3. The data set is described as follows: cells. The following applies: Homo sapiens, PC-3, 48 h.
A further data set relates to MCF7. The data set is described as follows: cells. The following applies: Homo sapiens, MCF7, 48 h.
In a further data set the test system is HCT-116. The data set is described as follows: cells. The following applies: Homo sapiens, HCT-116, 48 h.

Sequence of Dual specificity protein kinase CLK1 (Mus musculus) (P22518 whole entry, looked up): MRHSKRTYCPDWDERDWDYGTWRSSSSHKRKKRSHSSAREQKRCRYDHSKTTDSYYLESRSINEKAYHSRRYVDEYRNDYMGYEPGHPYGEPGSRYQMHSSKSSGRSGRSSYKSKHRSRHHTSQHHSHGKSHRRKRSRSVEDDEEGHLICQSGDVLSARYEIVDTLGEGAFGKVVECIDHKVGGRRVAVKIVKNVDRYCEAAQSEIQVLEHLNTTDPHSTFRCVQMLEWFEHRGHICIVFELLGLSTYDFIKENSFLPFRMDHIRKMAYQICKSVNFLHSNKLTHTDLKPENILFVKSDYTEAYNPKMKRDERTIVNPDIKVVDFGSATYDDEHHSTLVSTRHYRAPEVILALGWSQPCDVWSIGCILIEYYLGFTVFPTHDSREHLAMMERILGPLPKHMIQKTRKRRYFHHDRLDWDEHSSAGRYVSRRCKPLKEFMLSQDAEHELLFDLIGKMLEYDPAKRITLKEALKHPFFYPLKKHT
Sequence of Serine/threonine-protein kinase pim-1 (Homo sapiens) (P11309 whole entry, looked up): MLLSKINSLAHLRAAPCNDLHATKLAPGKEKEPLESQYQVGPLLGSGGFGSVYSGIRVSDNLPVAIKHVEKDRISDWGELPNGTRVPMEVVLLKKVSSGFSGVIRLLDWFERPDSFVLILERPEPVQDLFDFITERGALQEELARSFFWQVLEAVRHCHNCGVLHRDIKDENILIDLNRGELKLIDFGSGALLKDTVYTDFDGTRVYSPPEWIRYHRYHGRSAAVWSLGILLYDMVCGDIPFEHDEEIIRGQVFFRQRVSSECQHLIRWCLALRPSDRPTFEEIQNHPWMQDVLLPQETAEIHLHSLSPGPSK
Sequence of Cyclin-dependent kinase 5/CDK5 activator 1 (Homo sapiens) (Q00535 whole entry, canonical isoform): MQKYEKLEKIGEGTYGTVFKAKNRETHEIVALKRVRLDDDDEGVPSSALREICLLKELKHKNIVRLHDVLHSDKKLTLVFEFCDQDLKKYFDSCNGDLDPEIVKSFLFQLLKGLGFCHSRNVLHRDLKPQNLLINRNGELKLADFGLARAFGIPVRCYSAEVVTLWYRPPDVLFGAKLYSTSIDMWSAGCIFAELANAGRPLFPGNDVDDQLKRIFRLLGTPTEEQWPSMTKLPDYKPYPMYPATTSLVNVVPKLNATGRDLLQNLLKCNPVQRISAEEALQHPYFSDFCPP
Sequence of Cyclin-dependent kinase 5/CDK5 activator 1 (Homo sapiens) (Q15078 99-307 partner limits assumed): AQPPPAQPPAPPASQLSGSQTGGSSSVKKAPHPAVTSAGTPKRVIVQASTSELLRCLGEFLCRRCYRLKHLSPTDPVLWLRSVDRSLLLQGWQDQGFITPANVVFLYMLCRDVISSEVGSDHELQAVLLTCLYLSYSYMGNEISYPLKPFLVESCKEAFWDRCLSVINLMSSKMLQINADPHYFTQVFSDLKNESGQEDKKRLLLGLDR
Sequence of Glycogen synthase kinase-3 beta (Homo sapiens) (P49841 whole entry, looked up): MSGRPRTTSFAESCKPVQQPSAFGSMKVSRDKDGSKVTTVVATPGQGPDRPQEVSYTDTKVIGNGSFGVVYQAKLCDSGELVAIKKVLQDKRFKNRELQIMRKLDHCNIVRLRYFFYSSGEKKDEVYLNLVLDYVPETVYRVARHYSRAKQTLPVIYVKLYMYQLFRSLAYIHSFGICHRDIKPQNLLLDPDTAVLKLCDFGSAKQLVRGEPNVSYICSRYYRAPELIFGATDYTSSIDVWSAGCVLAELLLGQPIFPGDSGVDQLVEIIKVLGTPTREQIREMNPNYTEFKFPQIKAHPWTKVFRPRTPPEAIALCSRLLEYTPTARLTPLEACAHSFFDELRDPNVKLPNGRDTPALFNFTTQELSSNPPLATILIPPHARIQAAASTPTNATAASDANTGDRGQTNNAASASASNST
Sequence of Casein kinase I isoform epsilon (Homo sapiens) (P49674 whole entry, looked up, canonical isoform): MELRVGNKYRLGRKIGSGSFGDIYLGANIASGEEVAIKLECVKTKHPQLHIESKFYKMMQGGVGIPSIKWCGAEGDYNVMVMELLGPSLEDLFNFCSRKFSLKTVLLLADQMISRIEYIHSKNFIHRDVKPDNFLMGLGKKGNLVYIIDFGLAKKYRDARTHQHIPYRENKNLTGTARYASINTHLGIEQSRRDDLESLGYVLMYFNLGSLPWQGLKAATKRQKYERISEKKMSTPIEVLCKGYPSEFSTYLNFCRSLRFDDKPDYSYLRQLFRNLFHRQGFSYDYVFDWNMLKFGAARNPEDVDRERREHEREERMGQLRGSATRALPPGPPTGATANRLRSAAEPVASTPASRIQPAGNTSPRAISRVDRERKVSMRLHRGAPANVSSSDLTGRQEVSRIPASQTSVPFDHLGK
Description for Fibroblast: Cytotoxicity against human Fibroblast cells assessed as reduction in cell viability incubated for 48 hrs by Hoechst-33342 staining based cell counting method (Rvb > 25 microM)
Description for HCT-116: Cytotoxicity against human HCT-116 cells assessed as reduction in cell viability incubated for 48 hrs by Hoechst-33342 staining based cell counting method (Rvb > 25 microM)
Description for MDA-MB-231: Cytotoxicity against human MDA-MB-231 cells assessed as reduction in cell viability incubated for 48 hrs by Hoechst-33342 staining based cell counting method (Rvb > 25 microM)
Description for NCI-H727: Cytotoxicity against human NCI-H727 cells assessed as reduction in cell viability incubated for 48 hrs by Hoechst-33342 staining based cell counting method (Rvb > 25 microM)
Description for PC-3: Cytotoxicity against human PC-3 cells assessed as reduction in cell viability incubated for 48 hrs by Hoechst-33342 staining based cell counting method (Rvb > 25 microM)

As to `Clc1ccc(-n2cc(COc3cccc4cnc(Nc5cccc(Cl)c5)nc34)nn2)cc1`, the half-maximal inhibitory concentration (IC50) with Fibroblast is over 25 µM; in the data set on Huh-7 it was 24 µM; with MDA-MB-231 it was over 25 µM; with Caco-2, 24 µM; with NCI-H727, over 25 µM; in the data set with PC-3 it was over 25 µM. Besides, the concentration for half-maximal inhibition (IC50) with MCF7 and with HCT-116 was over 25 µM each time. Further, the Activity in data set [1] was 87%; in data set [2], 100%; in data set [3], 100%; in data set [5], 100%; in [6], 85%; in [7], 95%. Also, the Activity in [8] stood at 86%. In addition, the activity at 10 µM in data set [4] is 99%.

As to `CC(=O)O[C@H]1C(=O)[C@@]2(C)[C@H]([C@H](OC(=O)c3ccccc3)[C@]3(O)C[C@H](OC(=O)[C@H](O)[C@@H](NC(=O)c4ccccc4)c4ccccc4)C(C)=C1C3(C)C)[C@]1(OC(C)=O)CO[C@@H]1C[C@@H]2O` [PACLITAXEL], the IC50 with Fibroblast was determined as 0.1 µM; in the data set on Huh-7, 0.013 µM; with MDA-MB-231 it was 0.03 µM; with Caco-2 it was 0.014 µM; in the data set on NCI-H727 it was 0.01 µM; in the data set on PC-3, 0.002 µM. The compound further yielded a concentration for half-maximal inhibition (IC50) in the data set on HCT-116 of 0.002 µM.

Consider `Clc1cccc(Nc2ncc3cccc(OCc4cn(Cc5c(Cl)cccc5Cl)nn4)c3n2)c1`, for which the IC50 in the data set on Fibroblast is 14 µM; with Huh-7, 7 µM; in the data set on MDA-MB-231 it was 21 µM; in the data set on Caco-2, 9 µM; in the data set on NCI-H727, 5 µM; in the data set with PC-3 it was 7 µM. Also, the IC50 amounted to 6 µM with MCF7 and 24 µM with HCT-116. Also, the Activity in data set [1] was determined as 58%; in data set [2] it was 94%; in data set [3], 100%; in data set [5] it was 59%; in [6], 48%; in data set [7], 53%. For the same compound, the Activity in data set [8] stood at 97%. Besides, the activity at 10 µM in data set [4] amounted to 75%.

For the compound `Clc1cccc(Nc2ncc3cccc(OCc4cn(-c5cc(Cl)cc(Cl)c5)nn4)c3n2)c1`, the IC50 with Fibroblast worked out at 8 µM; with Huh-7 it was 7 µM; in the data set on MDA-MB-231, 9 µM; in the data set with Caco-2 it was 8 µM; with NCI-H727, 7 µM; with PC-3 it was 8 µM. The IC50 in the data set on MCF7 was 5 µM; with HCT-116, 8 µM. Also, the Activity in data set [1] came out at 35%; in [2] it was 90%; in data set [3], 55%; in data set [5] it was 77%; in [6] it was 81%; in data set [7], 64%. In addition, the Activity in data set [8] turned out to be 78%. Further, the activity at 10 µM in data set [4] stood at 100%.

Turning to `O=[N+]([O-])c1ccc(Cn2cc(COc3cccc4cnc(Nc5cccc(Cl)c5)nc34)nn2)cc1`, the Activity in [1] came to 60%; in data set [2], 90%; in data set [3] it was 65%; in data set [5] it was 76%; in data set [6], 39%; in [7], 72%. In addition, the Activity in data set [8] came to 77%. In data set [4], the activity at 10 µM stood at 88%.

Take `COc1cccc(-n2cc(COc3cccc4cnc(Nc5cccc(Cl)c5)nc34)nn2)c1`: the IC50 in the data set with Fibroblast is 18 µM; in the data set on Huh-7, 23 µM; in the data set with MDA-MB-231 it was 25 µM; in the data set on Caco-2 it was 20 µM; in the data set on NCI-H727, over 25 µM; with PC-3, 10 µM. Moreover, the IC50 is 8 µM with MCF7 and 23 µM with HCT-116. Further, the Activity stood at 47% in data set [1]; 94% in data set [2]; 40% in [3]; 100% in data set [5]; 27% in [6]; 85% in [7]. In addition, the Activity in data set [8] was found to be 79%. Further, in data set [4], the activity at 10 µM turned out to be 87%.

Turning to `COc1ccc(-n2cc(COc3cccc4cnc(Nc5cccc(Cl)c5)nc34)nn2)cc1`, the Activity in data set [1] was 47%; in data set [2], 100%; in data set [3] it was 86%; in data set [5], 100%; in [6] it was 70%; in data set [7] it was 100%. In data set [8], the Activity came out at 69%. Also, in data set [4], the activity at 10 µM came out at 94%.

As to `COc1ccccc1-n1cc(COc2cccc3cnc(Nc4cccc(Cl)c4)nc23)nn1`, the IC50 in the data set with Fibroblast is over 25 µM; in the data set with Huh-7, 7 µM; in the data set with MDA-MB-231, over 25 µM; in the data set with Caco-2 it was over 25 µM; in the data set with NCI-H727, over 25 µM; in the data set on PC-3, 8 µM. Further, the figures for the IC50 in the data set on MCF7 and with HCT-116 were 6 µM and over 25 µM, respectively. The Activity in data set [1] came to 61%; in data set [2], 94%; in data set [3], 96%; in data set [5], 100%; in data set [6] it was 26%; in data set [7], 74%. The Activity in [8] amounted to 84%. In data set [4], the activity at 10 µM was determined as 100%.

In the case of `O=[N+]([O-])c1ccc(-n2cc(COc3cccc4cnc(Nc5cccc(Cl)c5)nc34)nn2)cc1`, the Activity in data set [1] amounted to 87%; in data set [2] it was 94%; in [3] it was 86%; in [5], 100%; in [6], 26%; in [7], 63%. Moreover, in data set [8], the Activity came to 79%. The activity at 10 µM in data set [4] was 100%.

As for `Clc1cccc(Nc2ncc3cccc(OCc4cn(Cc5ccccc5)nn4)c3n2)c1`, the Activity in data set [1] was 48%; in [2], 87%; in [3], 79%; in data set [5], 83%; in data set [6], 65%; in data set [7], 100%. Besides, the Activity in [8] came to 84%. Besides, the activity at 10 µM in data set [4] came out at 81%.

As for `CC[C@H](CO)Nc1nc(NCc2ccccc2)c2ncn(C(C)C)c2n1` [SELICICLIB], the IC50 with Fibroblast was determined as 6 µM; in the data set with Huh-7 it was 14 µM; in the data set on NCI-H727 it was 28 µM; in the data set on MCF7, 9 µM.

As to `COc1cccc2c1C(=O)c1c(O)c3c(c(O)c1C2=O)C[C@@](O)(C(=O)CO)C[C@@H]3O[C@H]1C[C@H](N)[C@H](O)[C@H](C)O1` [DOXORUBICIN], the IC50 stood at 0.015 µM with Fibroblast; 0.036 µM in the data set with Huh-7; 0.01 µM with MDA-MB-231; 0.05 µM in the data set with Caco-2; 0.06 µM in the data set with PC-3.

For `Clc1cccc(Nc2ncc3cccc(OCc4cn(-c5ccc(Br)cc5)nn4)c3n2)c1`, the IC50 in the data set with Fibroblast is over 25 µM; in the data set with Huh-7, 14 µM; in the data set with MDA-MB-231, 33 µM; with Caco-2, 11 µM; in the data set on NCI-H727, 8 µM; in the data set with PC-3, 18 µM. Further, the values for the IC50 in the data set with MCF7 and with HCT-116 were 9 µM and 17 µM, respectively. In addition, the Activity turned out to be 77% in [1]; 100% in data set [2]; 79% in [3]; 100% in [5]; 56% in data set [6]; 81% in [7]. Moreover, in data set [8], the Activity was 79%. Besides, the activity at 10 µM in data set [4] was 95%.

Broadly, the IC50 is the midpoint of a concentration-inhibition curve.
